Measurements as given in patent US6596500B1, “Binding of retinoids to M6P/IGF-II receptor” (The General Hospital Corporation, priority 1998, dated 2003).

Experiments:
[1] = molecular target: T1, M6P/IGF2R (300 kDa protein) (Rattus norvegicus, UniProt G3V824); test: [3H]RA photoaffinity labeling of the 300 kDa protein; format: binding; settings: for Inhibition of [3H]RA photolabeling/binding to M6P/IGF2R by nonradioactive competitor: 25- to 50-fold molar excess (50 μM) competitor added before photolysis
T1 construct: about 100 μg of proteins of membrane preparations or serum; from tissue; host or cells: membrane preparations of cultured neonatal Sprague-Dawley rat cardiac myocytes
T1 sequence (G3V824 36-2481): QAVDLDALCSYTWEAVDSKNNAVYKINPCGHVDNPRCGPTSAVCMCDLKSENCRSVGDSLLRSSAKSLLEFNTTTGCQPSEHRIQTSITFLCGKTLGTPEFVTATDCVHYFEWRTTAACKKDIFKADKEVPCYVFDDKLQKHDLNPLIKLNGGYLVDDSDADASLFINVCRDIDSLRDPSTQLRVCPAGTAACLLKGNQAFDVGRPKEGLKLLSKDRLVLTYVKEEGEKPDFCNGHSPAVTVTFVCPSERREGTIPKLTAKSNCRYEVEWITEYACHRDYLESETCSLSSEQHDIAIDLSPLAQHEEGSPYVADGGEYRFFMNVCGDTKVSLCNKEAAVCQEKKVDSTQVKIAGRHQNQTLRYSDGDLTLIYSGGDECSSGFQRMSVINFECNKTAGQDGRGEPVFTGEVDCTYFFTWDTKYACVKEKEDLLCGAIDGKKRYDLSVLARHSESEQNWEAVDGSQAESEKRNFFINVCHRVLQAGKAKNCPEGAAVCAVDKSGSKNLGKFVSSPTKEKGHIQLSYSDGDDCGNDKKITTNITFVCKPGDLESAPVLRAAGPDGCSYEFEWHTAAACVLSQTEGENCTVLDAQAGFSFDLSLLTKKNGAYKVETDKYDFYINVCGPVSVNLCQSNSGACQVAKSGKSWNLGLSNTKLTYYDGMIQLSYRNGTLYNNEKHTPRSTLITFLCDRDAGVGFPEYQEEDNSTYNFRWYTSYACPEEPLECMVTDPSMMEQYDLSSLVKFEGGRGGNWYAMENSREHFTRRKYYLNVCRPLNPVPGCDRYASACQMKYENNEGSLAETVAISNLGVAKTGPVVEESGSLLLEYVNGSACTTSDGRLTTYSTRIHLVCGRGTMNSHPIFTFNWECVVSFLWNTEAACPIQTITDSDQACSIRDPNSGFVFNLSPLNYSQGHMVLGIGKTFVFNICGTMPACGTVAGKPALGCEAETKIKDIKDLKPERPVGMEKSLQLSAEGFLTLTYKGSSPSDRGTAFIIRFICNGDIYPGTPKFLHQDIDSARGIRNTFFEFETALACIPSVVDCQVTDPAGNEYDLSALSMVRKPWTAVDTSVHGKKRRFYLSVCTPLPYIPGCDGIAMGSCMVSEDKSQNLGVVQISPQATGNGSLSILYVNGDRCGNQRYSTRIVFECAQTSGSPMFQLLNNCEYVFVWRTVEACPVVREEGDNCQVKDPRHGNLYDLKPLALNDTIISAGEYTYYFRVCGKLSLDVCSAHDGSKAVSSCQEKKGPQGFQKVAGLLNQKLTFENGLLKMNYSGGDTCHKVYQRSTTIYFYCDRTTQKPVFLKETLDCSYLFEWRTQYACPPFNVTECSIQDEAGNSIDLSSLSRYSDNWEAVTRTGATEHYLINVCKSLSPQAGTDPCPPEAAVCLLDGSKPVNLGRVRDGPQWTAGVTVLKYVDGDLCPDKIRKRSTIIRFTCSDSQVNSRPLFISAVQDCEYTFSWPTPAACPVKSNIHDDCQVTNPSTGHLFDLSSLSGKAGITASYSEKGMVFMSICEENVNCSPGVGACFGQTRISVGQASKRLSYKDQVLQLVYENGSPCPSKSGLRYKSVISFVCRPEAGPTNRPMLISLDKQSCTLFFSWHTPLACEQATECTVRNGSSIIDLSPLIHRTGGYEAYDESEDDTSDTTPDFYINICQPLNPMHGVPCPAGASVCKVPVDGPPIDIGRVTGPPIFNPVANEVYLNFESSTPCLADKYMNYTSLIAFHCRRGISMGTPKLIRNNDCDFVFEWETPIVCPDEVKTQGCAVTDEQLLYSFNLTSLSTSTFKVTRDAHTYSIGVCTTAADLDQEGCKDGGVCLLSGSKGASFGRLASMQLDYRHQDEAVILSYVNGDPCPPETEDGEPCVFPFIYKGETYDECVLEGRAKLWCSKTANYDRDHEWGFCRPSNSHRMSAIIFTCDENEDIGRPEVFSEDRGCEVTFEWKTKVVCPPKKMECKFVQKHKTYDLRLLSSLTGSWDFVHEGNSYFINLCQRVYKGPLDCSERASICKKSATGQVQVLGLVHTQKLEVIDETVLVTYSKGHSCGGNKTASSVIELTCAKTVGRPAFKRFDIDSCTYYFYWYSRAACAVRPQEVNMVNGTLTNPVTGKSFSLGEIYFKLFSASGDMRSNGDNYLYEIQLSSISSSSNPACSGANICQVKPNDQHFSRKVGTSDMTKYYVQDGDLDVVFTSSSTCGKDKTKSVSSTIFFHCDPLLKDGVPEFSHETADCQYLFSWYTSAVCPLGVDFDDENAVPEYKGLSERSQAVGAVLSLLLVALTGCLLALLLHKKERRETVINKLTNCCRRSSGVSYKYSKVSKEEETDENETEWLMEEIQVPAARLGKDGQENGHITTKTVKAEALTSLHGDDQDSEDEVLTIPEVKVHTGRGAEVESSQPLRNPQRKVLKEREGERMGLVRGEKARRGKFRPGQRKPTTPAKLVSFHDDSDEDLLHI
Description: Photoaffinity Labeling Photoaffinity labeling was performed essentially according to the methods described in Bernstein et al., 1995, Proc. Natl. Acad. Sci. USA 92:654-658. […] After the ethanol has been evaporated with nitrogen, about 100 μg of proteins of membrane preparations or serum [serum proteins were first concentrated using a Biomax-100K Centrifugal Filter Device (Millipore)] were then added to each tube. The final volume was adjusted to 100 μl with 50 mM Tris buffer (pH 7.4) containing protease inhibitors (5 mM EDTA, 5 mM EGTA, 0.1 mM phenylmethylsulfonyl fluoride, 0.05% NaN3, 20 μg/ml aprotinin, 10 μg/ml benzamidine and 12.5 μg/ml chymostatin) and 50 μM butylated hydroxytoluene (a radical scavenger, used to minimize the non-specific labeling) for a final concentration of 1 μM labeled retinoic acid. The samples were incubated at room temperature with agitation for 1 hour in the dark. The samples were exposed to an intense 365-nm UV light source (Model B 100AP, UPland, CA) for 7 min. […] To remove the non-covalently bound ligands, the photolabeled samples were extracted with chloroform/methanol (2:1), or washed once by centrifugation for membrane samples only).
Fluorography The resultant protein pellets were dissolved in SDS sample buffer containing 5% β-mercapto-ethanol and heated at 100° C. for 5 min. These samples were then run on 7% polyacrylamide gels (30:0.2, acrylamide/bisacrylamide ratio), using conventional SDS/PAGE techniques. After electrophoresis, the gels were stained with Coomassie blue, soaked in Amplifier (Amersham, Life Science) for 30 minutes, dried by a vacuum gel dryer and then exposed to Hyperfilm-TM X-ray films (Amersham, Life Science) at […] for 1-3 days.

[2] = molecular target: M6P/IGF2R (Rattus norvegicus, UniProt G3V824); test: Immunofluorescence of M6P/IGF2R distribution in fibroblasts; format: cell-based; parameters: endogenous in cells; host or cells: primary neonatal rat cardiac fibroblasts; settings: RAR antagonist with RA
Chain of M6P/IGF2R (G3V824 36-2481): as above
Description: FIGS. 7A and 7B are photo micrographs showing the effect of retinoic acid on the distribution of the M6P/IGF2R in neonatal rat fibroblasts. […] The receptor was concentrated primarily in the perinuclear structure (probably the TGN area). […] Bar represents 4 μm.
To determine if RA affects intracellular trafficking of the M6P/IGF2R, distribution of the receptor in neonatal rat fibroblasts with or without RA treatment was visualized by immunofluorescence. The primary antibody used to target the receptor was a polyclonal anti-rat M6P/IGF2R (full length) rabbit IgG with high specificity. A non-immuno-rabbit IgG was used as a negative control. As indicated by fluorescence (FIGS. 7A and 7B), the M6P/IGF2R in the fibroblasts is normally concentrated primarily in the perinuclear structure (probably the TGN). […] This indicated a potentiating effect of RA on the trafficking of the M6P/IGF2R from the TGN to the endosomes/lysosomes.
(§1) Intracellular Trafficking Materials Retinoic acid was obtained from Sigma Chem. Co. (St. Louis, Mo.). The synthetic retinoids used (AGN193109, TTNPB) were produced by Allergan Inc. (Irvine, Calif.). Stably-transfected P388D1 cells re-expressing the M6P/IGF2R were provided by Dr. William S. Sly (St. Louis University). The rabbit polyclonal antibody against the rat M6P/IGF-II receptor was a gift from Dr. R.G. MacDonald (University of Nebraska). […]

[3] = system: neonatal rat fibroblasts; test: Immunofluorescence of cathepsin B distribution in fibroblasts; format: cell-based; settings: RAR antagonist with RA
Description: FIGS. 8A and 8B are photomicrographs showing effect of retinoic acid on the distribution of cathepsin B in neonatal rat fibroblasts. […] The enzyme was found mainly in the perinuclear area. […] Bar represents 4 μm.
Since biosynthetic transport of lysosomal enzymes from the TGN to endosomes/lysosomes is mainly mediated by the M6P/IGF2R (Sohar et al., 1998, Biochem. J. 330:903-908), an enhanced trafficking of the receptor should lead to an increased translocation of the M6P-containing lysosomal enzymes from the TGN to lysosomes. To test this, we examined the effect of RA on the intracellular distribution of cathepsin B, a lysosomal protease known to be transported in a M6P-dependent manner in fibroblasts (Hanewinkel et al., 1987, J. Diol. Chem. 262:12351-12355). […] The distribution was similar to that of M6P/IGF2R (shift from perinuclear area to cytoplasmic vesicles throughout the cytoplasm).
as §1

[4] = system: P388D1 cells; test: Morphology, growth and apoptosis of P388D1 cells overexpressing M6P/IGF2R; format: cell-based, mouse; settings: P388D1 cells overexpressing M6P/IGF2R
Description: FIG. 10 is a graph showing the effect of RA treatment on growth rate of P388D1 cells overexpressing M6P/IGF2R protein and P388D1 controls. Open circles, vector control cells without RA treatment; closed circles, vector control cells with 1 μM RA treatment; open triangles, overexpressing cells without RA treatment; closed triangles overexpressing cells with 1 μM RA treatment.
We examined M6P/IGF2R-mediated effects of RA in mouse macrophage P388D1 cells, which are the best characterized cells that lack the M6P/IGF2R protein.

[5] = system: neonatal rat cardiac myocytes; test: Growth, morphology and apoptosis of cardiac myocytes; format: cell-based; settings: 48 hours
Description: Cultured neonatal rat cardiac myocytes were known to express high levels of the M6P/IGF2R protein. The effect of RA on the growth of normal, neonatal rat cardiac myocytes was examined.
Cell Isolation and Culture For the photoaffinity labeling experiments, cardiac myocytes were isolated from 1-day-old neonatal Sprague-Dawley rats, using the Neonatal Cardiomyocyte Isolation System (Worthington). The isolated cell were cultured on Petri dishes with culture medium (F-10 nutrient mixture/10% horse serum/5% fetal bovine serum/50 μg/ml streptomycin/50 units/ml penicillin G). Cells were used for experiments after 2-6 days of culture.

[6] = molecular target: T2, partially-purified neonatal rat serum IGF2R (Rattus norvegicus, UniProt G3V824); test: Competitive radioligand (10 nM [3H]RA) binding assay; settings: n=3, read-out: IC50 (50% inhibitory concentration) for [3H]RA binding
T2 construct: both intact (300 kDa) and truncated (260 kDa) forms of M6P/IGF-II receptor exist in the serum; from tissue; host or cells: neonatal rat serum, FPLC Sepharose-12 fraction
T2 sequence (G3V824 36-2481): as above
Description: Partially purified M6P/IGF-II receptors from neonatal rat serum was prepared using a Fast Protein Liquid Chromatography (FPLC) system equipped with a Sepharose-12 column (Pharmacia). The partially purified M6P/IGF2R protein was diluted in binding buffer (20 mM Tris-HCl, pH 8.0/150 mM NaCl/1mM DTT/protease inhibitors) at a concentration of 50 Ag/ml. […] Incubation was carried out at 22° C. for 2 h in the dark. After the incubation, 0.2 ml chilled charcoal-dextran suspension (charcoal/dextran/glycerol=0.5%/0.05%/20%) was added to remove the unbound ligand.

CC1=C(/C=C/C(C)=C\C=C\C(C)=C\C(=O)O)C(C)(C)CCC1 [9-cis-RA, 9-cis-retinoic acid]
Inhibition of [3H]RA photolabeling/binding to M6P/IGF2R by nonradioactive competitor [1]: inhibited the binding

CC1=C(/C=C/C(C)=C/C=C/C(C)=C\C(=O)O)C(C)(C)CCC1 [13-cis-RA, 13-cis-retinoic acid]
Inhibition of [3H]RA photolabeling/binding to M6P/IGF2R by nonradioactive competitor [1]: inhibited the binding

Cc1ccc(C2=CCC(C)(C)c3ccc(C#Cc4ccc(C(=O)O)cc4)cc32)cc1 [AGN193109]
Blocking of RA effect on M6P/IGF2R distribution by RAR antagonist [2]: neither blocked by the RAR antagonist | Blocking of RA effect on cathepsin B distribution by RAR antagonist [3]: neither blocked by the RAR antagonist

O=C[C@@H](O)[C@@H](O)[C@H](O)[C@H](O)COP(=O)(O)O [M6P, mannose 6-phosphate]
[3H]RA labeling of M6P/IGF-II receptor, presence vs absence of M6P ([1]; 5 mM M6P, measured by NIH Image, n=3): 2 fold | Enhancement of cross-linking of [3H]RA to M6P/IGF-II receptor ([1]; [3H]RA affinity photolabeling): significantly enhanced | Inhibition of [3H]RA binding to M6P/IGF-II receptor by other receptor ligands ([1]; [3H]RA affinity photolabeling): Neither M6P nor IGF-II inhibited

CC1=C(/C=C/C(C)=C/C=C/C(C)=C/C=O)C(C)(C)CCC1 [retinal]
Induction of the RA-like effects on morphology, proliferation and apoptosis [4]: similarly induced

CC1=C(/C=C/C(C)=C/C=C/C(C)=C/CO)C(C)(C)CCC1 [retinol]
Inhibition of [3H]RA photolabeling/binding to M6P/IGF2R by nonradioactive competitor [1]: inhibited the binding | Induction of the RA-like effects on morphology, proliferation and apoptosis [4]: similarly induced | Cell morphology and growth [5]: exerted effects on cell morphology and growth similar to the effects of RA | IC50 [6]: 120 ± 18 nM

IGF-II: insulin-like growth factor II (a protein), ligand of the M6P/IGF-II receptor
Inhibition of [3H]RA binding to M6P/IGF-II receptor by other receptor ligands ([1]; [3H]RA affinity photolabeling): Neither M6P nor IGF-II inhibited

retinol acetate
Inhibition of [3H]RA photolabeling/binding to M6P/IGF2R by nonradioactive competitor [1]: inhibited the binding | Induction of the RA-like effects on morphology, proliferation and apoptosis [4]: similarly induced | Cell morphology and growth [5]: exerted effects on cell morphology and growth similar to the effects of RA | IC50 [6]: 135 ± 30 nM
